This is an account of results in patent US8901118B2, “Compounds and methods for kinase modulation, and indications therefor” (Plexxikon Inc., priority 2010, dated 2014).

Structures are written as SMILES.

Format in all cases: cell-based
For one test, the target named is T1, BCR-NTRK2 BaF3 cells (Homo sapiens, UniProt Q16620).
T1 construct: fused on or other part: P11274 (Breakpoint cluster region protein)
Nature of the test: BaF3 BCR-NTRK2 cell proliferation assay (ATPlite). The note with it: read-out: Inhibition of Cell Proliferation IC50, BCR/BaF3 TrkB. How it is done:
(§1) Compounds are assessed in a variety of cell based assays. For example BaF3 cells engineered with any of BCR-FMS, BCR-KIT, BCR-FLT3, BCR-NTRK1, BCR-NTRK2, and BCR-NTRK3, are used in cell proliferation assays to assess inhibitory activity of Fms, Kit, Flt-3, TrkA, TrkB, and TrkC, respectively. An MV-4-11 (leukemia) cell proliferation assay is used to assess inhibitory activity in Flt-3, and SKNSH (human neuroblastoma) cell proliferation assay is used to assess efficacy of Fms/Trk inhibitors. Additional cells may be assayed similarly to assess the efficacy of Fms/Trk inhibitors, such as MiaPaCa (human pancreatic cancer) and Capan-1 (human pancreatic carcinoma) cells. Reagent and assay conditions are as follows: • BaF3 cells: • Maintained in RPMI containing 10% FBS, 1% PenStrep, 1% NEAA, and 1% L-Glutamine, supplemented with 1 mg/mL G418 and 5% WEHI-CM (or recombinant murine IL-3). • Confluent cells are split 1:50 to 1:100 every 3-4 days. • MV-4-11 cells: • Maintained in Iscove's Modified Dulbecco's Medium containing 10% FBS. • Confluent cells are split 1:4 every 3-4 days. • SKNSH cells: RPMI containing 10% FBS. On day 1, cells are counted, then centrifuged in a conical tube for 5 minutes at 1000 rpm. The supernatant is removed and cells are re-suspended as follows: • BaF3: resuspend in growth media +1 mg/mL G418 (without WEHFIL-3) to 2×10^5 cells/mL. • MV-4-11: resuspend in growth media to 5×10^5 cells/mL. • SKNSH: resuspend in growth media to 2×10^4 cells/mL. The cells are plated (50 μL, 150 μL for SKNSH cells) in each well of a 96-well dish (Corning 3610) and incubated at 37° C. in 5% CO2 overnight, cells plated to a final concentration of cells as follows: • BaF3: 10,000 cells per well. • MV-4-11: 25,000 cells per well. • SKNSH: 3,000 cells per well. On day 2, compound at a maximum concentration of 5 mM is serially diluted 1:3 for a total of 8 point titration with DMSO as a control. A 1 μL aliquot of each dilution point is added to 249 μL growth media and 50 μL is added to a well containing cells, providing 10 μM compound for the maximum concentration point. The cells are incubated for 3 days at 37° C. in 5% CO2. For SKNSH cells, a 0.75 μL aliquot of appropriate dilution in DMSO is added to 150 μL of cells. On day 5, ATPlite 1 step Luminescence Assay System (Perkin Elmer #6016739) is brought to room temperature along with the cell cultures. ATPlite is added to each well as follows: • BaF3: 25 μL per well. • MV-4-11: 40 μL per well. • SKNSH: 20 μL per well. The cells are incubated at room temperature for 10 minutes, then luminescence is read on Safire reader. The measured luminescence correlates directly with cell number, such that the reading as a function of compound concentration is used to determine the IC50 value.
(§2) It is understood that the results of these assays may vary as assay conditions are varied. Inhibition levels determined under the conditions described herein represent a relative activity for the compounds tested under the specific conditions employed. The cell based assays are likely to show variability due to the complexity of the system and the sensitivity thereof to any changes in the assay conditions. […] Results for compounds that are tested and show substantially no inhibition below the highest tested concentration are represented as “-” in the tables below. In some instances, the compounds were not tested in all of the assays, or assay results were not valid, as indicated by NA in the tables below.
In general terms: In ATP-based viability assays light output follows the ATP content of the culture.

In another test the target is T2, BCR-KIT BaF3 cells (Homo sapiens, UniProt P10721).
T2 construct: fused on or other part: P11274 (Breakpoint cluster region protein)
Nature of the test: BaF3 BCR-KIT cell proliferation assay (ATPlite). The settings on record: read-out: Inhibition of Cell Proliferation IC50, BCR/BaF3 Kit. How it is done:
as §1, §2

A further test has as its target T3, BCR-NTRK1 BaF3 cells (Homo sapiens, UniProt P04629).
T3 construct: fused on or other part: P11274 (Breakpoint cluster region protein)
Nature of the test: BaF3 BCR-NTRK1 cell proliferation assay (ATPlite). The note with it: read-out: Inhibition of Cell Proliferation IC50, BCR/BaF3 TrkA. On the procedure: as §1, §2

T2 sequence (P10721 589-937): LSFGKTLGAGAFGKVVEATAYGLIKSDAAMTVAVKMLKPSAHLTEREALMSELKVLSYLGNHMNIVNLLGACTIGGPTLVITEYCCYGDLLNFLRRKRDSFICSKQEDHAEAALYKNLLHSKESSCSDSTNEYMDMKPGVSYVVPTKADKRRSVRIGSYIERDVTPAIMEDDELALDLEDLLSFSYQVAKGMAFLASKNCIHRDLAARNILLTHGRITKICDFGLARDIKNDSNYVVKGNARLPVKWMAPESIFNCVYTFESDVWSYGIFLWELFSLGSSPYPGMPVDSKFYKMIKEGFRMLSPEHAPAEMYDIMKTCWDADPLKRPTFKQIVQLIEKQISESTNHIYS
T1 sequence (Q16620 538-807): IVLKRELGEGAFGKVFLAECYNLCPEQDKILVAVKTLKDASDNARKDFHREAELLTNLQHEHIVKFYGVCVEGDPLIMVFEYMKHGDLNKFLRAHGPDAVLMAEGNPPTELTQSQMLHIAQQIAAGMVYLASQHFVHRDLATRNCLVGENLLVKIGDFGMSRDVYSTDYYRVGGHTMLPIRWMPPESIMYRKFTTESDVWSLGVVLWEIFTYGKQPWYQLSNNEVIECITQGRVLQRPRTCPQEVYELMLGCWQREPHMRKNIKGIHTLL
T3 sequence (P04629 510-781): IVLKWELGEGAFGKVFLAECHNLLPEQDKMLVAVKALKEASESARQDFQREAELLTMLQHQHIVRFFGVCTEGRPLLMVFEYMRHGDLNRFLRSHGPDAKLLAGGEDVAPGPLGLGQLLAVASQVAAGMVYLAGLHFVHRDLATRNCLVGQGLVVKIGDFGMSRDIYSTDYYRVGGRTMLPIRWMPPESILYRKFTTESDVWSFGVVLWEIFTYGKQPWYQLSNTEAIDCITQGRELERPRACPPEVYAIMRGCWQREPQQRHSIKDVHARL

As to `CC1CCC(Nc2ncc(Cc3c[nH]c4ncc(Cl)cc34)cn2)CC1` (stereo not shown) [Compound P-3009, [5-(5-Chloro-1H-pyrrolo[2,3-b]pyridin-3-ylmethyl)-pyrimidin-2-yl]-(4-methyl-cyclohexyl)-amine], the IC50 is more than 10 µM at BCR-NTRK2 BaF3 cells, more than 1 µM on BCR-KIT BaF3 cells and more than 10 µM on BCR-NTRK1 BaF3 cells.
On to `Cc1cnc2[nH]cc(Cc3cnc(Nc4ccc(F)cc4)nc3)c2c1` [Compound P-3010, (4-Fluoro-phenyl)-[5-(5-methyl-1H-pyrrolo[2,3-b]pyridin-3-ylmethyl)-pyrimidin-2-yl]-amine], for which the IC50 on BCR-NTRK2 BaF3 cells is more than 10 µM; at BCR-KIT BaF3 cells, less than 1 µM; at BCR-NTRK1 BaF3 cells it was more than 10 µM.
For `Clc1ccc(Nc2ncc(Cc3c[nH]c4ncc(Cl)cc34)cn2)cc1` [Compound P-3011, (4-Chloro-phenyl)-[5-(5-chloro-1H-pyrrolo[2,3-b]pyridin-3-ylmethyl)-pyrimidin-2-yl]-amine], the IC50 at BCR-NTRK2 BaF3 cells was less than 1 µM; at BCR-KIT BaF3 cells, less than 0.1 µM; on BCR-NTRK1 BaF3 cells, less than 1 µM.
As to `Fc1ccc(Nc2ncc(Cc3c[nH]c4ncc(Cl)cc34)cn2)cc1` [Compound P-3012, [5-(5-Chloro-1H-pyrrolo[2,3-b]pyridin-3-ylmethyl)-pyrimidin-2-yl]-(4-fluoro-phenyl)-amine], the IC50 on BCR-NTRK2 BaF3 cells, on BCR-KIT BaF3 cells and at BCR-NTRK1 BaF3 cells was less than 1 µM throughout.
As for `Fc1nc(NC2CCC(F)(F)CC2)ccc1Cc1c[nH]c2ncc(Cl)cc12` [Compound P-3013, [5-(5-Chloro-1H-pyrrolo[2,3-b]pyridin-3-ylmethyl)-6-fluoro-pyridin-2-yl]-(4,4-difluoro-cyclohexyl)-amine], the results for the IC50 at BCR-NTRK2 BaF3 cells, at BCR-KIT BaF3 cells and on BCR-NTRK1 BaF3 cells were more than 10 µM, more than 1 µM and more than 10 µM, respectively.
`Fc1ccccc1Nc1ncc(Cc2c[nH]c3ncc(Cl)cc23)cn1` [Compound P-3014, [5-(5-Chloro-1H-pyrrolo[2,3-b]pyridin-3-ylmethyl)-pyrimidin-2-yl]-(2-fluoro-phenyl)-amine]: the IC50 at BCR-NTRK2 BaF3 cells is more than 10 µM; at BCR-KIT BaF3 cells, more than 1 µM; at BCR-NTRK1 BaF3 cells, more than 10 µM.
Regarding `Clc1cnc2[nH]cc(Cc3cnc(Nc4ccccc4Cl)nc3)c2c1` [Compound P-3015, (2-Chloro-phenyl)-[5-(5-chloro-1H-pyrrolo[2,3-b]pyridin-3-ylmethyl)-pyrimidin-2-yl]-amine], the figures for the IC50 on BCR-NTRK2 BaF3 cells, at BCR-KIT BaF3 cells and at BCR-NTRK1 BaF3 cells were more than 10 µM, more than 1 µM and more than 10 µM, respectively.
On to `COc1ccc(Nc2ccc(C(=O)c3c[nH]c4ncnc(NC(C)(C)C)c34)c(F)n2)cn1` [Compound P-4055, [4-(tert-butylamino)-7H-pyrrolo[2,3-d]pyrimidin-5-yl]-[2-fluoro-6-[(6-methoxy-3-pyridyl)amino]-3-pyridyl]methanone], for which the results for the IC50 at BCR-NTRK2 BaF3 cells, on BCR-KIT BaF3 cells and on BCR-NTRK1 BaF3 cells were less than 0.01 µM, more than 1 µM and less than 1 µM, respectively.
With `COc1ccc(Nc2ccc(C(=O)c3c[nH]c4ncnc(NC5CCC(F)(F)CC5)c34)c(F)n2)cn1` [Compound P-4056, [4-[(4,4-difluorocyclohexyl)amino]-7H-pyrrolo[2,3-d]pyrimidin-5-yl]-[2-fluoro-6-[(6-methoxy-3-pyridyl)amino]-3-pyridyl]methanone], the IC50 at BCR-NTRK2 BaF3 cells is less than 0.01 µM; at BCR-KIT BaF3 cells, more than 1 µM; at BCR-NTRK1 BaF3 cells, less than 1 µM.
Take `O=C(c1ccc(NC2CCC(F)(F)CC2)nc1Cl)c1c[nH]c2ncnc(NCC(F)(F)F)c12` [Compound P-4057, [2-chloro-6-[(4,4-difluorocyclohexyl)amino]-3-pyridyl]-[4-(2,2,2-trifluoroethylamino)-7H-pyrrolo[2,3-d]pyrimidin-5-yl]methanone]: the IC50 on BCR-NTRK2 BaF3 cells, on BCR-KIT BaF3 cells and at BCR-NTRK1 BaF3 cells was more than 1 µM in each case.
`CNc1ncnc2[nH]cc(C(=O)c3ccc(NC4CCC(F)(F)CC4)nc3Cl)c12` [Compound P-4058, [2-chloro-6-[(4,4-difluorocyclohexyl)amino]-3-pyridyl]-[4-(methylamino)-7H-pyrrolo[2,3-d]pyrimidin-5-yl]methanone]: the IC50 on BCR-NTRK2 BaF3 cells, at BCR-KIT BaF3 cells and at BCR-NTRK1 BaF3 cells was less than 1 µM throughout.
Consider `O=C(c1ccc(NC2CCC(F)(F)CC2)nc1Cl)c1c[nH]c2ncnc(NC3CC3)c12` [Compound P-4059, [2-chloro-6-[(4,4-difluorocyclohexyl)amino]-3-pyridyl]-[4-(cyclopropylamino)-7H-pyrrolo[2,3-d]pyrimidin-5-yl]methanone], for which the IC50 on BCR-NTRK2 BaF3 cells was less than 0.1 µM; on BCR-KIT BaF3 cells it was more than 1 µM; on BCR-NTRK1 BaF3 cells, less than 1 µM.
On to `CCNc1ncnc2[nH]cc(C(=O)c3ccc(Nc4ccc(C5CC5)nc4)nc3F)c12` [Compound P-4060, [6-[(6-cyclopropyl-3-pyridyl)amino]-2-fluoro-3-pyridyl]-[4-(ethylamino)-7H-pyrrolo[2,3-d]pyrimidin-5-yl]methanone], for which the IC50 at BCR-NTRK2 BaF3 cells was less than 0.01 µM; at BCR-KIT BaF3 cells it was less than 0.1 µM; on BCR-NTRK1 BaF3 cells, less than 0.01 µM.
On to `O=C(c1ccc(NC2CCC(F)(F)CC2)nc1F)c1c[nH]c2ncnc(NCC(F)(F)F)c12` [Compound P-4061, [6-[(4,4-difluorocyclohexyl)amino]-2-fluoro-3-pyridyl]-[4-(2,2,2-trifluoroethylamino)-7H-pyrrolo[2,3-d]pyrimidin-5-yl]methanone], for which the IC50 was less than 0.01 µM on BCR-NTRK2 BaF3 cells, more than 1 µM on BCR-KIT BaF3 cells and less than 0.1 µM on BCR-NTRK1 BaF3 cells.
`O=C(c1ccc(NC2CCC(F)(F)CC2)nc1F)c1c[nH]c2ncnc(NC3CC3)c12` [Compound P-4062, [4-(cyclopropylamino)-7H-pyrrolo[2,3-d]pyrimidin-5-yl]-[6-[(4,4-difluorocyclohexyl)amino]-2-fluoro-3-pyridyl]methanone]: the IC50 on BCR-NTRK2 BaF3 cells is less than 0.01 µM; at BCR-KIT BaF3 cells, less than 1 µM; on BCR-NTRK1 BaF3 cells, less than 0.01 µM.
Take `CNc1ncnc2[nH]cc(C(=O)c3ccc(Nc4ccc(OC)nc4)nc3OC)c12` [Compound P-4085, [2-methoxy-6-[(6-methoxy-3-pyridyl)amino]-3-pyridyl]-[4-(methylamino)-7H-pyrrolo[2,3-d]pyrimidin-5-yl]methanone]: the IC50 at BCR-KIT BaF3 cells was more than 1 µM; at BCR-NTRK1 BaF3 cells, less than 1 µM.
Take `CCc1ccc(Nc2ccc(C(=O)c3c[nH]c4ncnc(Nc5ccc(C)nc5)c34)c(F)n2)cn1` [Compound P-4086, [6-[(6-ethyl-3-pyridyl)amino]-2-fluoro-3-pyridyl]-[4-[(6-methyl-3-pyridyl)amino]-7H-pyrrolo[2,3-d]pyrimidin-5-yl]methanone]: the IC50 on BCR-NTRK1 BaF3 cells was less than 0.01 µM.
Consider `Cc1ccc(Nc2ccc(C(=O)c3c[nH]c4ncnc(NCC5CC5)c34)c(F)n2)cn1` [Compound P-4113, [4-(cyclopropylmethylamino)-7H-pyrrolo[2,3-d]pyrimidin-5-yl]-[2-fluoro-6-[(6-methyl-3-pyridyl)amino]-3-pyridyl]methanone], for which the IC50 at BCR-KIT BaF3 cells was less than 1 µM; on BCR-NTRK1 BaF3 cells it was less than 0.1 µM.
As to `CCCNc1ncnc2[nH]cc(C(=O)c3ccc(Nc4ccc(C)nc4)nc3F)c12` [Compound P-4114, [2-fluoro-6-[(6-methyl-3-pyridyl)amino]-3-pyridyl]-[4-(propylamino)-7H-pyrrolo[2,3-d]pyrimidin-5-yl]methanone], the IC50 at BCR-KIT BaF3 cells is less than 1 µM; on BCR-NTRK1 BaF3 cells, less than 0.01 µM.
